Laboratory results reported in the supplement of paper PMC11451515.

Columns and labels:
Experiment in all cases: AUC of viability dose-response curve (% viability x log10 dose units); higher = less sensitive
Details in all cases: 48 h
NOMO1 = tested on: NOMO1
How it was run: (§1)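 Medium-adapted leukemia cells in 1536-well plates, at 500 or 1000 cells/well, were incubated for 48 h at 37°C with library compounds in DMSO at 11 threefold doses from 47 μM to 0.79 nM. CellTiter-Glo One luminescence normalised per plate to DMSO and cell-free wells was fitted with a four-parameter log-logistic model over log10 doses. Area under the curve was integrated from this fit by trapezoidal rule, with curves beyond full viability scaled and failed quality-control curves removed.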

P12-Ichikawa = tested on: P12-Ichikawa
How it was run: as §1

SEM cells = tested on: SEM cells
How it was run: as §1

[1] = RPMI 5 mM glucose + 10% dialyzed FBS

Row | SMILES | AUC of viability dose-response curve (NOMO1; HPLM + 10% dialyzed FBS) | AUC of viability dose-response curve (NOMO1; RPMI 5 mM glucose + 10% FBS) | AUC of viability dose-response curve (NOMO1; [1]) | AUC of viability dose-response curve (P12-Ichikawa; HPLM + 10% dialyzed FBS) | AUC of viability dose-response curve (P12-Ichikawa; RPMI 5 mM glucose + 10% FBS) | AUC of viability dose-response curve (P12-Ichikawa; [1]) | AUC of viability dose-response curve (SEM cells; HPLM + 10% dialyzed FBS) | AUC of viability dose-response curve (SEM cells; RPMI 5 mM glucose + 10% FBS) | AUC of viability dose-response curve (SEM cells; [1])
1 | Nc1ccccc1NC(=O)c1ccc(CNc2nccc(-c3cccnc3)n2)cc1 | 351 | 364 | 353 | 355 | 349 | 352 | 312 | 306 | 304
2 | Fc1ccc(C(c2ccc(F)cc2)N2CCN(C/C=C/c3ccccc3)CC2)cc1 | 432 | 467 | 457 | 456 | 462 | 447 | 404 | 392 | 424
3 | O=C(O)c1ccc2cc(-c3ccc(O)c(C45CC6CC(CC(C6)C4)C5)c3)ccc2c1 | 323 | 330 | 311 | 299 | 285 | 277 | 287 | 282 | 266
4 | O=C(O)c1ccccc1C(=O)Nc1ccc(-c2ccccc2)cc1 | 462 | 463 | 460 | 468 | 461 | 469 | 449 | 457 | 456
5 | C1Cc2[nH]nc(-c3nn[nH]n3)c2C1 | 460 | 460 | 456 | 470 | 458 | 472 | 464 | 438 | 445
6 | ClC1=CC=C(CCCOC/2=N/NC(=O)C(=C2NCC3=CN=CC=C3)/Br)C=C1 | 344 | 390 | 392 | 387 | 430 | 382 | 323 | 358 | 391
7 | FC(F)(F)c1ccc(Nc2nc3cc(Oc4ccnc(-c5ncc(C(F)(F)F)[nH]5)c4)ccc3[nH]2)cc1 | 472 | 466 | 476 | 465 | 460 | 458 | 442 | 439 | 420
8 | CC[C@H]1OC(=O)[C@H](C)[C@@H](O[C@H]2C[C@@](C)(OC)[C@@H](O)[C@H](C)O2)[C@H](C)[C@@H](O[C@@H]2O[C@@H](C)C[C@H](N(C)C)[C@H]2O)[C@](C)(O)C[C@@H](C)C(=O)[C@H](C)[C@@H](O)[C@]1(C)O | 423 | 403 | 429 | 402 | 402 | 411 | 401 | 418 | 400
9 | C[N]1C=NC=C1[C@@](N)(C2=CC=C(Cl)C=C2)C3=CC=C4N(C)C(=O)\C=C(\C5=CC=CC(=C5)Cl)C4=C3 | 398 | 430 | 401 | 377 | 352 | 376 | 284 | 279 | 342
10 | CN(C)Cc1ccc(-c2nc3cccc4c3n2CCNC4=O)cc1 | 464 | 458 | 452 | 461 | 463 | 466 | 455 | 459 | 462
11 | CN(C)CCOC(c1ccccc1)c1ccccc1 | 470 | 459 | 467 | 471 | 473 | 469 | 460 | 473 | 452
12 | Cc1cc(Nc2ncc(Cl)c(Nc3ccccc3[S+](=O)([O-])C(C)C)n2)c(OC(C)C)cc1C1CCNCC1 | 396 | 395 | 395 | 449 | 425 | 442 | 380 | 393 | 392
13 | Clc1cccc(-c2nnnn2Cc2cccnc2)c1Cl | 362 | 365 | 357 | 397 | 385 | 382 | 359 | 348 | 375
14 | COC1=CC=C2Nc3cc(Cl)ccc3C(N=C3C=C(CN4CCCC4)C(=O)C(CN4CCCC4)=C3)=C2N1 | 472 | 459 | 475 | 472 | 468 | 469 | 435 | 449 | 437
15 | Cc1ccc(C(C)(O)c2nc3ccccc3s2)c(C)c1 (stereo unspecified) | 427 | 433 | 457 | 412 | 415 | 426 | 386 | 387 | 386
16 | O=[N+]([O-])c1cn2c(n1)OC[C@@H](OCc1ccc(OC(F)(F)F)cc1)C2 | 454 | 459 | 470 | 450 | 453 | 458 | 444 | 466 | 455
17 | COC[C@H](NC(=O)c1cnc(C)s1)C(=O)N[C@@H](COC)C(=O)N[C@@H](Cc1ccccc1)C(=O)[C@@]1(C)CO1 | 265 | 273 | 271 | 251 | 245 | 231 | 214 | 213 | 199
18 | CN1CCCN(C(=O)c2cccc(-c3ccc(/C=C4/C(=O)Nc5ccc(Cl)cc54)o3)c2)CC1 | 399 | 446 | 436 | 419 | 372 | 396 | 362 | 324 | 332
19 | CCC[C@@H]1C[C@@H](C(=O)N[C@@H]([C@H]2O[C@H](SC)[C@H](O)[C@@H](O)[C@H]2O)[C@@H](C)O)N(C)C1.Cl | 428 | 463 | 457 | 448 | 438 | 399 | 471 | 473 | 465
20 | O=C1NC(=O)[C@@H](c2cn3c4c(cccc24)CCC3)[C@@H]1c1c[nH]c2ccccc12 | 367 | 363 | 379 | 358 | 344 | 380 | 345 | 317 | 348
21 | CNC(=O)[C@H](Cc1ccccc1)NC(=O)[C@H](CC(C)C)[C@H](CSc1cccs1)C(=O)NO | 433 | 402 | 415 | 409 | 373 | 386 | 405 | 389 | 340
22 | CC(C)(C)/[N+]([O-])=C/c1ccc([S+](=O)([O-])[O][Na])cc1[S+](=O)([O-])[O][Na] | 451 | 445 | 459 | 461 | 451 | 469 | 438 | 461 | 453

Row | SMILES | AUC of viability dose-response curve (NOMO1; HPLM + 10% dialyzed FBS) | AUC of viability dose-response curve (NOMO1; RPMI 5 mM glucose + 10% FBS) | AUC of viability dose-response curve (NOMO1; [1]) | AUC of viability dose-response curve (P12-Ichikawa; HPLM + 10% dialyzed FBS) | AUC of viability dose-response curve (P12-Ichikawa; RPMI 5 mM glucose + 10% FBS) | AUC of viability dose-response curve (P12-Ichikawa; [1]) | AUC of viability dose-response curve (SEM cells; HPLM + 10% dialyzed FBS) | AUC of viability dose-response curve (SEM cells; RPMI 5 mM glucose + 10% FBS) | AUC of viability dose-response curve (SEM cells; [1])
23 | Cl.c1cnc2cc3c(cc2n1)C1CNCC3C1 | 465 | 470 | 467 | 474 | 444 | 467 | 458 | 444 | 461
24 | N[C@@H](C(=O)N[C@H]1[C@H]2SC\C(=C(/N2C1=O)C(O)=O)Cl)C3=CC=CC=C3 | 462 | 430 | 441 | 462 | 457 | 466 | 436 | 465 | 468
25 | COCCOC(=O)C/1=C(C)/NC/2=C(C1C3=CC=CC(=C3)O)/C(=O)CC(C2)C4=C(OC)C=CC=C4 (stereo unspecified) | 454 | 469 | 467 | 450 | 451 | 448 | 425 | 415 | 413
26 | CSC1=CC(=CC=C1)NC2=NC3=C(C=N2)/C=C(C(=O)N3C)/C4=C(Cl)C=CC=C4Cl | 467 | 467 | 460 | 476 | 469 | 464 | 417 | 455 | 407
27 | CC(C)OC(=O)CCC/C=C\C[C@@H]1[C@@H](/C=C/[C@@H](O)COc2cccc(C(F)(F)F)c2)[C@H](O)C[C@@H]1O | 443 | 448 | 450 | 459 | 439 | 446 | 455 | 452 | 434
28 | NC1CCC(N[C@@H]2C[C@H]2c2ccccc2)CC1 (stereo partly specified) | 450 | 456 | 450 | 463 | 461 | 467 | 409 | 444 | 441
29 | CCCCCCCCCCCC(CC1OC(=O)C1CCCCCC)OC(=O)C(CC(C)C)NC=O (stereo unspecified) | 452 | 461 | 456 | 443 | 440 | 443 | 407 | 343 | 391
30 | COc1nc(-c2ccc3c(c2)OCO3)n(-c2ccc(NC(=O)CSc3ccccc3)cc2)n1 | 440 | 449 | 455 | 470 | 454 | 428 | 457 | 443 | 453
31 | C#CCN(C)[C@H](C)Cc1ccccc1 | 401 | 385 | 410 | 431 | 413 | 402 | 401 | 410 | 407
32 | CN1C(=O)\C(=C/C(=C1/NC2=C(F)C=C(I)C=C2)C(=O)NOCCO)C | 257 | 281 | 253 | 441 | 423 | 451 | 398 | 403 | 342
33 | O=C(NC1CCNCC1)c1n[nH]cc1NC(=O)c1c(Cl)cccc1Cl | 321 | 332 | 324 | 345 | 341 | 357 | 319 | 323 | 326
34 | COc1ccc(Cc2nccc3cc(OC)c(OC)cc23)cc1OC | 453 | 458 | 454 | 462 | 466 | 458 | 469 | 460 | 465
35 | Cc1cc(O)c2c3c4c(cc(O)c13)C(C)(C)C(=O)c1c(O)cc(O)c(c1-4)C2=O | 450 | 451 | 462 | 460 | 457 | 454 | 457 | 465 | 450
36 | Cc1[nH]c(/C=C2\C(=O)Nc3ccc([S+](=O)([O-])N(C)c4cccc(Cl)c4)cc32)c(C)c1C(=O)N1CCN(C)CC1 | 451 | 462 | 456 | 436 | 430 | 432 | 393 | 379 | 368
37 | NC(=O)N1c2ccccc2CC(=O)c2ccccc21 | 408 | 444 | 466 | 461 | 456 | 464 | 466 | 427 | 389
38 | Cc1ccc(NC(=O)C2(c3ccc4c(c3)OC(F)(F)O4)CC2)nc1-c1cccc(C(=O)O)c1 | 252 | 246 | 264 | 268 | 253 | 260 | 241 | 202 | 232
39 | CCOC(=O)C/1=C(C)/NC(=S)NC1C2=CC=CC(=C2)O (stereo unspecified) | 286 | 272 | 300 | 251 | 246 | 281 | 242 | 242 | 263
40 | C[C@H]([C@H](O)CCC(C)(C)O)[C@H]1CC[C@@]2(O)C/3=C/C(=O)[C@@H]4C[C@@H](O)[C@@H](O)C[C@]4(C)[C@H]3CC[C@]12C | 470 | 468 | 476 | 460 | 452 | 470 | 461 | 458 | 474
41 | CCC1=C[C@@H]2CN(C1)Cc1c([nH]c3ccccc13)[C@@](C(=O)OC)(c1cc3c(cc1OC)N(C)[C@H]1[C@@](O)(C(=O)OC)[C@H](OC(C)=O)[C@]4(CC)C=CCN5CC[C@]31[C@@H]54)C2 | 256 | 259 | 260 | 202 | 182 | 238 | 244 | 187 | 241
42 | CC#C[C@]1(O)CC[C@H]2[C@@H]/3CCC/4=C/C(=O)CCC4=C3[C@H](C[C@]12C)C5=CC=C(C=C5)N(C)C | 399 | 364 | 370 | 456 | 422 | 411 | 384 | 426 | 432
43 | CCOC(=O)Nc1ccc(NCc2ccc(F)cc2)cc1N | 424 | 448 | 445 | 452 | 464 | 451 | 459 | 467 | 470
44 | CC(C)C[C@H](CN)CC(=O)O | 460 | 445 | 458 | 450 | 458 | 455 | 449 | 452 | 451
